Experimental data published in patent US20170280720A1, “ARGININE […] INHIBITORS AND USES THEREOF” (EPIZYME, INC., priority 2014, published 2017).

target: T1, Human CARM1 (PRMT4) (Homo sapiens, UniProt Q86X55); assay: CARM1 biochemical assay (3H-SAM Flashplate, peptide substrate); settings: read-out: CARM1_ IC50
T1 construct: Flag-CARM1-His; made in house; host or cells: HEK 293F cells (BacMam baculovirus, pFastBacMam)
T1 sequence (Q86X55 2-585 isoform Q86X55-1): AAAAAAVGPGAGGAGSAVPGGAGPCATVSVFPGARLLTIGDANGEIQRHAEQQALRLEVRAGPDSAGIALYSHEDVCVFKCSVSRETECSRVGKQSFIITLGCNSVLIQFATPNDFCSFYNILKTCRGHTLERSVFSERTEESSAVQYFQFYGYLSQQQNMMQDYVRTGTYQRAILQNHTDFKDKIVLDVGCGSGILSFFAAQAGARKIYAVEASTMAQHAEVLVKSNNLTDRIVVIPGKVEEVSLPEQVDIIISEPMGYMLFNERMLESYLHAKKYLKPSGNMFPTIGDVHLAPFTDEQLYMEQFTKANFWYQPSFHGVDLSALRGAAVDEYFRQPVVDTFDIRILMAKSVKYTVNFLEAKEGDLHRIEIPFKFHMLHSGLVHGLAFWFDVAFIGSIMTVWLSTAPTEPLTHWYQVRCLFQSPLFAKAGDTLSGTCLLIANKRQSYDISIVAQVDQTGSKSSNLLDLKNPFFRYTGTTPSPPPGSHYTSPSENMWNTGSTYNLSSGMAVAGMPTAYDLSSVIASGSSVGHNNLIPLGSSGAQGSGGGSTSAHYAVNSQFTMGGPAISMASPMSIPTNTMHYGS
Summary of the method: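 FLAG/His-tagged human CARM1 (isoform 1, Δ539-561, baculovirus-expressed), 0.25 nM, preincubated 30 min at room temperature with compound (2% DMSO) in 20 mM Bicine pH 7.6, then reacted with 30 nM 3H-SAM and 250 nM biotinylated H3 16-30 peptide (R26 monomethyl). Stopped with 300 uM cold SAM; labelled peptide captured on streptavidin Flashplate; % inhibition versus DMSO and 1 mM SAH controls fitted to a 4- or 3-parameter curve.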

IC50 [nM] | SMILES
32.8 | CNCCN(C)Cc1cccc(-c2cc(NC3CC3)c3cnn(C(C)C)c3n2)c1 [Compound 11]
1710 | CC(C)n1cc2c(N)cc(-c3cccc(CN(C)CCN)c3)nc2n1 [Compound 13]
14 | CNCCN(C)Cc1cccc(-c2cc(Nc3ncc(C)s3)c3cnn(C(C)C)c3n2)c1 [Compound 20]
8.97 | Cc1nn(C(C)C)c2nc(-c3cccc(CN(C)CCN)c3)cc(N3CCOCC3)c12 [Compound 22, N1-(3-(1-isopropyl-3-methyl-4-morpholino-1H-pyrazolo[3,4-b]pyridin-6-yl)benzyl)-N1-methylethane-1,2-diamine]
32.9 | CC(C)n1ncc2c(C(=O)NCc3ccc(F)cc3)cc(-c3cccc(CN(C)CCN)c3)nc21 [Compound 25]
5.47 | CC(C)n1ncc2c(C(=O)NCc3c(F)cccc3F)cc(-c3cccc(CN(C)CCN)c3)nc21 [Compound 37]
18.7 | CNCCN(C)Cc1cccc(-c2cc(C(=O)NCc3ccccc3F)c3cnn(C(C)C)c3n2)c1 [Compound 38]
13.4 | CC(C)n1ncc2c(NC3CC3)cc(-c3cccc(CN(C)CCN)c3)nc21 [Compound 41]
84.1 | CNCCN(C)Cc1cccc(-c2cc(C(=O)N3CCc4ccccc4C3)c3cnn(C(C)C)c3n2)c1 [Compound 42]
176 | CC(C)n1ncc2c(C(=O)N3CCCCC3)cc(-c3cccc(CN(C)CCN)c3)nc21 [Compound 43]
84.1 | CNCCN(C)Cc1cccc(-c2cc(Oc3ccccc3)c3cnn(C(C)C)c3n2)c1 [Compound 45]

Second part, the compound before the results:

SMILES | IC50 [nM]
CN(CCN)Cc1cccc(-c2nc(NCc3nccs3)c3cnn(C4CC4)c3n2)c1 [Compound 1] | 3.56
CC(C)n1ncc2c(C(=O)N[C@@H](C)c3ccccc3)cc(-c3cccc(CN(C)CCN)c3)cc21 [Compound 10] | 45.2
CNCCN(C)Cc1cccc(-c2cc(C(=O)N[C@@H](C)c3ccccc3)c3cn[nH]c3n2)c1 [Compound 12] | 79.3
CC(C)n1ncc2c(C(=O)NCc3ccccc3)cc(-c3cccc(CN(C)CCN)c3)cc21 [Compound 14] | 135
CNCCN(C)Cc1cccc(-c2nc(NCc3cc(C)nn3C)c3cnn(C4CC4)c3n2)c1 [Compound 17] | 8.42
CN(CCN)Cc1cccc(-c2nc(NC3CCOCC3)c3cnn(C(C)(C)C)c3n2)c1 [Compound 18] | 5.83
CNCCN(C)Cc1cccc(-c2cc(C(=O)NCC3CCOCC3)c3cnn(C4CCC4)c3n2)c1 [Compound 21] | 43.9
CNCCN(C)Cc1cccc(-c2cc(C(=O)NCC3CCOCC3)c3cnn(C4CC4)c3n2)c1 [Compound 26] | 26.6
CNCCN(C)Cc1cccc(-c2nc(NC3CCOCC3)c3cnn(C(C)(C)C)c3n2)c1 [Compound 27, N1-(3-(1-tert-butyl-4-(tetrahydro-2H-pyran-4-ylamino)-1H-pyrazolo[3,4-d]pyrimidin-6-yl)benzyl)-N1,N2-dimethylethane-1,2-diamine] | 4.25
CNCCN(C)Cc1cccc(-c2ccc3ncn(C(C)C)c3c2)c1 [Compound 28] | 12200
CNCCN(C)Cc1cccc(-c2cc(C(=O)NC3CCOCC3)c3cnn(C4CCC4)c3n2)c1 [Compound 29] | 92.4
CNCCN(C)Cc1cccc(-c2ccc3ncn(C4CCOCC4)c3c2)c1 [Compound 30] | 852
CC(C)n1cnc2cc(-c3cccc(CN(C)CCN)c3)ccc21 [Compound 32] | 7040
CCn1ncc2c(C(=O)N[C@@H](C)c3ccccc3)cc(-c3cccc(CN(C)CCNC)c3)nc21 [Compound 33] | 79.7
CNCCN(C)Cc1cccc(-c2ccc3c(c2)ncn3CCOC)c1 [Compound 34] | 10000
CNCCN(C)Cc1cccc(-c2ccc3cn(Cc4ccccc4)nc3n2)c1 [Compound 35] | 4960
CNCCN(C)Cc1cccc(-c2cnc3c(c2)c(Br)nn3CC2CCOCC2)c1 [Compound 39] | 6790
CN(CCN)Cc1cccc(-c2nc(NCc3cccnc3)c3cnn(C4CC4)c3n2)c1 [Compound 40] | 7.14
CC(C)n1cnc2cc(-c3ccc(CN(C)CCN)cc3)ccc21 [Compound 46] | 10000
